Measurements: patent US10618898B2, “Hydroxyl purine compounds and use thereof” (GUANGDONG RAYNOVENT BIOTECH CO., LTD., priority 2015, dated 2020)
pIC50: −log10 of the molar value. Like-named read-outs stand apart in the source and are kept apart here.

What was measured:
[1] = target: T1, Recombinant full-length human PDE2A protein (Homo sapiens, UniProt O00408); assay: In vitro PDE2 phosphodiesterase inhibitory activity (fluorescence polarization, Transcreener AMP2/GMP2); format: biochemical
T1 construct: Recombinant full-length human PDE2A protein; GST (N); host or cells: insect Sf9 cells (baculovirus)
Description: Experiment Objective: Determining the concentration of AMP/GMP produced in the reaction system by way of detecting the AlexaFluor 633 fluorescent dye substituted on AMP/GMP antibody by fluorescence polarization assay, and thereby to calculate the IC50 value of PDE2 phosphodiesterase inhibition by the test compound. Experimental Materials: Detecting buffer solution: 10 mM Tris-HCl, pH 7.5, 5 mM MgCl2, 0.01% Brij 35, 1 mM DTT, and 1% DMSO. Enzyme: Recombinant full-length human PDE2A protein with an N-terminal GST-tag expressed in insect Sf9 cells by baculovirus Substrate: 1 μM cGMP Detection System: Transcreener® AMP^2/GMP^2 antibody, AMP2/GMP2 AlexaFluor 633 fluorescent dye Experimental Operation:
The enzyme solution was prepared by using the freshly prepared buffer solution, and then was added into the reaction wells. The DMSO solution of the test compound was added via Echo550, a nanoliter-scale contactless acoustic liquid transferring system, and then pre-incubated at room temperature for 10 minutes. The substrate (1 μLM cGMP) was added to initiate the reaction at room temperature for one hour. The detection system (Transcreener® AMP^2/GMP^2 antibody, AMP2/GMP2 AlexaFluor 633 fluorescent dye) was then added, and the reaction was conducted at room temperature for 90 minutes. Fluorescence polarization was then detected by using Ex/Em 620/688.
The intensity of fluorescence polarization was converted to nM concentration by the AMP/GMP standard curve, and then calculate the relative enzyme activity inhibition relative to the DMSO blank. The IC50 values and curves were calculated by using the Prism software package (GraphPad Software, San Diego Calif., USA)

TNF-α = assay: In vitro induction of TNF-α in rat blood by LPS (ELISA); format: cell-based; details: test compound final concentration 100 μM, 5 hours, read-out: Rate of TNFα inhibition
Description: Experiment Objective: Determining the impact of the compounds on induction of TNF-α in rat blood by LPS in vitro, and evaluating the effect of the compounds on inhibiting induction of TNF-α in rat blood by LPS.
Sprague Dawley rats (male, 210-260 g, 8-10 weeks old, Shanghai SLAC)
Rat TNF-alpha Quantikine ELISA Kit (R&D, # SRTA00)
The test compound solutions were prepared at a concentration of 1 mM. 40 μl of each of the solutions was added into a 48-well cell culture plate (at the final concentration of 100 μM). After the rat was anesthetized with isoflurane, the blood was collected from the heart (heparin for anticoagulation). The blood was added into the 48-well plate containing the test compound, in the amount of 320 μL per well. The 48-well plate was placed into a cell incubator, and then taken out after 30 minutes of incubation. Then, 40 μL of LPS solution (100 μg/ml) was added and mixed. The 48-well plate was placed into the incubator for further incubation. After 5 hours, the 48-well plate was taken out and the blood sample was transferred to a 1.5 mL centrifuge tube, followed by centrifugation in a centrifuge (4,500 rpm, 4° C., 5 minutes). The supernatant was separated and the plasma was obtained. […] In the next day, the TNF-α level of the plasma samples was determined by using the R&D ELISA kit in accordance with the instructions.

[2] = human PDE2A, substrate 1 μM cGMP, fluorescence polarization, read-out: PDE2 phosphodiesterase inhibitory activity

T1 sequence (O00408 whole entry): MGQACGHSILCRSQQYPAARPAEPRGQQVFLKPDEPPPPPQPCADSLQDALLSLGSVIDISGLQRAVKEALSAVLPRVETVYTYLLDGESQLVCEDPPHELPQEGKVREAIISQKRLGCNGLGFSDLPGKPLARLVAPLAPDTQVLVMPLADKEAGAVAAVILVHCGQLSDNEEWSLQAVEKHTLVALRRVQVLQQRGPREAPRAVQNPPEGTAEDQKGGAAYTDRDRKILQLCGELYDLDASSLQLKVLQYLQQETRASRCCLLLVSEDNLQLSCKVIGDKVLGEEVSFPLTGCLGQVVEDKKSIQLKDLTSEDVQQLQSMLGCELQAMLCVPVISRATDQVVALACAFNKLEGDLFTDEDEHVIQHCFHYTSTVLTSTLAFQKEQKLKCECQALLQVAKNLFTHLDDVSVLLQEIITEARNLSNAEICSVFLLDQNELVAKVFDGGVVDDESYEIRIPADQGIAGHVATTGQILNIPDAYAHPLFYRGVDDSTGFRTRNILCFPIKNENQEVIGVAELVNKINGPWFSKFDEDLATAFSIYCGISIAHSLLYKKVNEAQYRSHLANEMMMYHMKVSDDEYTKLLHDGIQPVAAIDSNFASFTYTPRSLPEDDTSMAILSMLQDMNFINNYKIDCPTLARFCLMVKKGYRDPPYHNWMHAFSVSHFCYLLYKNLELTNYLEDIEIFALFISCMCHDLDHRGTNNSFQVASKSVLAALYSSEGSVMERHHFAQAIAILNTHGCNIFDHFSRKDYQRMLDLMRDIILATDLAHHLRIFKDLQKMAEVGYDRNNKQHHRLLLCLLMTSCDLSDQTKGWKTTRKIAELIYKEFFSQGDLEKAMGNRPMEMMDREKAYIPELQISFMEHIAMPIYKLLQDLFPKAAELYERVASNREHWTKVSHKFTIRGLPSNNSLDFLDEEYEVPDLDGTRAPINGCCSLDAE

| Compound | pIC50 [1, 2] | inhibition at 100 µM (TNF-α) | pIC50 [1] |
| --- | --- | --- | --- |
| CCC1(CCn2c(=O)c3c(ncn3C)n(C)c2=O)CCOC1 (single isomer, unassigned) [Example 12 Isomer 2, 1-(2-(3-Ethyltetrahydro-furan-3-yl)ethyl)-3,7-dimethyl-1H-purin-2,6-(3H,7H)-dione] | 4.30 to 5.00 |  |  |
| Cn1cnc2c1c(=O)n(CC1(C)COC1)c(=O)n2C [Example 3, 3,7-Dimethyl-1-((3-methyloxetan-3-yl)methyl)-1H-purin-2,6(3H, 7H)-dione] |  | 60 to 80% | 4.30 to 5.00 |
| CCC1(Cn2c(=O)c3c(ncn3C)n(C)c2=O)COC1 [Example 4, 1-((3-Ethyloxetan-3-yl)methyl)3,7-dimethyl-1H-purin-2,6(3H,7H)-dione] | 4.30 to 5.00 |  |  |
| Cn1cnc2c1c(=O)n(CC1(C)CCOCC1)c(=O)n2C [Example 11 Isomer 1, 3,7-Dimethyl-1-((4-methyltetrahydro-2H-pyran-4-yl)methyl)-1H-purin-2,6-(3H,7H)-dione] | 4.30 to 5.00 |  |  |
| CCC1(Cn2c(=O)c3c(ncn3C)n(C)c2=O)CCOCC1 [Example 12 Isomer 1, 1-((4-Ethyltetrahydro-2H-pyran-4-yl)methyl)-3,7-dimethyl-1H-purin-2,6-(3H,7H)-dione] | 4.30 to 5.00 |  |  |
| Cn1cnc2c1c(=O)n(CCN1CCOCC1)c(=O)n2C [Example 17, 3,7-Dimethyl-1-(2-morpholinoethyl)-purin-2,6-dione] |  | < 60% |  |
| Cn1c(=O)n(CC2(C)COC2)c(=O)c2c1cnn2CC1CC1 [Example 33, 1-(Cyclopropylmethyl)-4-methyl-6-((3-methyloxetan-3-yl)methyl)-pyrazolo[4,3-d]pyrimidin-5,7-dione] | 4.30 to 5.00 |  |  |

Second part, led by results:

| pIC50 [1, 2] | Compound | inhibition at 100 µM (TNF-α) | pIC50 [1] |
| --- | --- | --- | --- |
| 4.30 to 5.00 | CCC1OCC1CCn1c(=O)c2c(ncn2C)n(C)c1=O (centres unmarked) [Example 5, 1-(2-(2-Ethyloxetan-3-yl)ethyl)-3,7-dimethyl-1H-purin-2,6(3H,7H)-dione] |  |  |
| 4.30 to 5.00 | C[C@H]1CC(CCn2c(=O)c3c(ncn3C)n(C)c2=O)C[C@H](C)O1 (stereo partly drawn) [Example 14, 1-[2-((2S,6S)-2,6-dimethyltetrahydro-2H-pyran-4-yl)-ethyl]-3,7-dimethyl-1H-2,6(3H,7H)-dione] |  |  |
| 4.30 to 5.00 | CCC1COCCC1CCn1c(=O)c2c(ncn2C)n(C)c1=O (centres unmarked) [Example 15, 1-(2-(3-Ethyltetrahydro-2H-pyran-4-yl)ethyl)-3,7-dimethyl-1H-purin-2,6-(3H,7H)-dione] |  |  |
| 4.30 to 5.00 | CCC1CC(CCn2c(=O)c3c(ncn3C)n(C)c2=O)CCO1 (centres unmarked) [Example 16] |  |  |
| 4.30 to 5.00 | COC1CCC(Cn2c(=O)c3c(ncn3C)n(C)c2=O)CC1 (centres unmarked) [Example 18, 1((-4-Methoxycyclohexyl)methyl)-3,7-dimethyl-1H-purin-2,6-(3H,7H)-dione] |  |  |
| 4.30 to 5.00 | C[C@@H]1CC(CCn2c(=O)c3c(ncn3CC(F)(F)F)n(C)c2=O)C[C@@H](C)O1 (stereo partly drawn) [Example 20, 1-(2-((2R,6R)-2,6-dimethyltetrahydro-2H-pyran-4-yl)ethyl)-3-methyl-7-(2,2,2-trifluoroethyl)-1H-purin-2,6 (3H,7H)-dione] |  |  |
| 4.30 to 5.00 | CC(C)n1cnc2c1c(=O)n(CCC1C[C@@H](C)O[C@H](C)C1)c(=O)n2C (stereo partly drawn) [Example 21, 1-(2-((2R,6R)-2,6-dimethyltetrahydro-2H-pyran-4-yl)ethyl)yl-7-isopropyl-3-methyl-1H-purin-2,6(3H,7H)-dione] |  |  |
| 4.30 to 5.00 | C[C@@H]1CC(CCn2c(=O)c3c(ncn3CC3CC3)n(C)c2=O)C[C@@H](C)O1 (some centres unmarked) [Example 23] |  |  |
| 4.30 to 5.00 | CC(C)Cn1cnc2c1c(=O)n(CCC1C[C@@H](C)O[C@H](C)C1)c(=O)n2C (stereo partly drawn) [Example 26, 1-(2-((2R,6R)-2,6-dimethyltetrahydro-2H-pyran-4-yl)ethyl)-7-isobutyl-3-methyl-1H-purin-2,6(3H, 7H)-dione] |  |  |
